This is an account of results in patent publication US20230099031A1, “BIFUNCTIONAL AGENTS FOR PROTEIN RECRUITMENT AND/OR DEGRADATION” (Orionis Biosciences, Inc., priority 2019, published 2023).

What all share (type): cell-based
In one experiment the target is T1, ASS1 (Homo sapiens, UniProt P00966+Q96SW2).
T1 construct: Full size proteins are fused for each of the target proteins tested; expressed in transfected cells; host or cells: HEK293T
The experiment in a line: Recruitment Assay (MAPPIT-like): ASS1 recruitment, pSEL-CRBN+pMG1-ASS1. The conditions noted are these: recruitment of ASS1, protocol of Example 2; for EC50: read-out: EC50_ASS1. How it is done: (§1) In this experimental set-up, cells are transfected with a construct encoding a CRBN-fusion protein and another one encoding a substrate-fusion protein. Test compound activity is assessed with increasing concentrations of test compounds (dose-response studies) to monitor the ability to promote CRBN-ligand-induced protein interaction.
(§2) Full size proteins are fused for each of the target proteins tested, except in the case of IKZF1 where isoform 7 is used, and BRD4, where isoform 3 is applied. For the study, the following construct combinations are used: IKZF1 recruitment: pSEL-CRBN+pMG1-IKZF1(isoform 7); ASS1 recruitment: pSEL-CRBN+pMG1-ASS1; SALL4 recruitment: pSEL-SALL4+pMG1-CRBN; DHFR recruitment: pCLG-DHFR+pMG1-CRBN; ESR1 recruitment: pSEL-CRBN+pMG1-ESR1; BRD4 recruitment: pSEL-CRBN+pMG1-BRD4(isoform 3). Cells are treated with erythropoietin (Epo; where pSEL-type receptor fusions constructs are used) or leptin (in the case pCLG-type receptor fusion constructs are applied) without or with the indicated dose of test compound at 24 hours after transfection. Luciferase activity is measured 24 hours after test compound treatment using the Luciferase Assay System kit (PROMEGA, Madison, Wis.) with an Ensight plate reader (PERKIN ELMER LIFE SCIENCES, Waltham, Mass.). Data points depict fold induction of the average luciferase activity of triplicate samples from Epo or leptin+test compound treated cells versus Epo or leptin only treated cells. Error bars represent standard deviations. Curves are fit using 4-parameter nonlinear regression in […] PRISM software.

For a further experiment, the target named is T2, CRBN (Homo sapiens, UniProt Q96SW2).
T2 construct: expressed in transfected cells; host or cells: HEK293T
Nature of the experiment: Competition Assay: MAPPIT-like, competition with trimethoprim-lenalidomide hybrid ligand for binding to CRBN in HEK293T cells. The conditions noted are these: protocol and reagents of Example 1; read-out: IC50 Competition.

A further experiment deals with T3, SALL4 (Homo sapiens, UniProt Q96SW2+Q9UJQ4).
T3 construct: Full size proteins are fused for each of the target proteins tested; expressed in transfected cells; host or cells: HEK293T
The experiment in a line: Recruitment Assay (MAPPIT-like): SALL4 recruitment, pSEL-SALL4+pMG1-CRBN. The conditions noted are these: recruitment of SALL4, protocol of Example 2; read-out: EC50_SALL4. As for the experimental part:
as §1, §2

As a reminder, the IC50 is the concentration at which inhibition is half-maximal. In the case of `O=C1CCC(N2Cc3cc4c(cc3C2=O)OCO4)C(=O)N1` (centres unmarked) [Compound C68126, 3-(7-oxo-5H-[1,3]dioxolo[4,5-f]isoindol-6-yl)piperidine-2,6-dione], the “EC50_ASS1 (M)” value at ASS1 was “>>”. In addition, at CRBN, the IC50 was determined as 0.564 µM. Besides, the EC50 at SALL4 worked out at 0.319 µM.

On to `O=C1CCC(n2nnc3ccccc3c2=O)C(=O)N1` (centres unmarked) [Compound C21223, 3-(4-oxo-1,2,3-benzotriazin-3-yl)piperidine-2,6-dione], for which the “EC50_ASS1 (M)” value on ASS1 is “>>”. On CRBN, the concentration for half-maximal inhibition (IC50) was 2.29 µM. Moreover, the EC50 at SALL4 is 0.517 µM.

On to `Cc1nc2ccc(C#N)c(N)c2c(=O)n1C1CCC(=O)NC1=O` (centres unmarked) [Compound C10001, 5-amino-3-(2,6-dioxo-3-piperidyl)-2-methyl-4-oxo-quinazoline-6-carbonitrile], for which the “EC50_ASS1 (M)” value at ASS1 was “>>”. Moreover, the EC50 on SALL4 worked out at 1.25 µM.

With `O=C1CCC(N2Cc3ncccc3C2=O)C(=O)N1` (centres unmarked) [Compound C47959, 3-(5-oxo-7H-pyrrolo[3,4-b]pyridin-6-yl)piperidine-2,6-dione], on ASS1, the “EC50_ASS1 (M)” value was “>>”. In addition, the IC50 on CRBN was 2.57 µM. Further, the EC50 at SALL4 stood at 0.441 µM.

Turning to `O=C1CCC(N2Cc3cc(Nc4ncnc5ccccc45)ccc3C2=O)C(=O)N1` (centres unmarked) [Compound C80373, 3-[1-oxo-5-(quinazolin-4-ylamino)isoindolin-2-yl]piperidine-2,6-dione], the “EC50_ASS1 (M)” value on ASS1 is “>>”. For the same compound, the half-inhibitory concentration (IC50) at CRBN was determined as 0.892 µM.

For `O=C(O)CNc1cccc2c1C(=O)N(C1CCC(=O)NC1=O)C2` (centres unmarked) [Compound C47998, 2-[[2-(2,6-dioxo-3-piperidyl)-3-oxo-isoindolin-4-yl]amino]acetic acid], on CRBN, the half-maximal inhibitory concentration (IC50) is 6.59 µM. Further, at SALL4, the EC50 was found to be 2.17 µM.

In the case of `O=C1CCC(N2Cc3ccc(O)cc3C2=O)C(=O)N1` (centres unmarked) [Compound C28928, 3-(6-hydroxy-1-oxo-isoindolin-2-yl)piperidine-2,6-dione], the “EC50_ASS1 (M)” value on ASS1 was “>>”.

For the compound `CC(=O)Nc1ccc2c(c1)CN(C1CCC(=O)NC1=O)C2=O` (centres unmarked) [Compound C29361, N-[2-(2,6-dioxo-3-piperidyl)-1-oxo-isoindolin-5-yl]acetamide], the “EC50_ASS1 (M)” value at ASS1 was “>>”. Further, the IC50 on CRBN was 1.43 µM. Besides, the EC50 on SALL4 was determined as 0.186 µM.

As for `O=C1CCC(N2Cc3ccc(-c4ccccc4)cc3C2=O)C(=O)N1` (centres unmarked) [Compound C48018, 3-(1-oxo-6-phenyl-isoindolin-2-yl)piperidine-2,6-dione], the 50% inhibitory concentration (IC50) on CRBN turned out to be 0.228 µM. At SALL4, the EC50 was 0.395 µM.

`Cc1ccc2c(c1)C(=O)N(C1CCC(=O)NC1=O)C2` (centres unmarked) [Compound C28620, 3-(6-methyl-1-oxo-isoindolin-2-yl)piperidine-2,6-dione]: the 50% inhibitory concentration (IC50) at CRBN came out at 0.178 µM. The EC50 at SALL4 came out at 0.27 µM.

On to `O=C1CCC(N2Cc3ccc(Nc4ncc5c(n4)COC5)cc3C2=O)C(=O)N1` (centres unmarked) [Compound C80391, 3-[6-(5,7-dihydrofuro[3,4-d]pyrimidin-2-ylamino)-1-oxo-isoindolin-2-yl]piperidine-2,6-dione], for which the concentration for half-maximal inhibition (IC50) on CRBN was 0.163 µM. Moreover, on SALL4, the EC50 is 0.152 µM.

Turning to `O=C1CCC(N2C(=O)c3ccccc3C2O)C(=O)N1` (centres unmarked) [Compound C89940, 3-(1-hydroxy-3-oxo-isoindolin-2-yl)piperidine-2,6-dione], the “EC50_ASS1 (M)” value on ASS1 is “>>”. The IC50 at CRBN was 3.29 µM. At SALL4, the EC50 came to 0.438 µM.

For the compound `N#Cc1ccc2c(c1)CN(C1CCC(=O)NC1=O)C2=O` (centres unmarked) [Compound C48005, 2-(2,6-dioxo-3-piperidyl)-1-oxo-isoindoline-5-carbonitrile], the IC50 on CRBN was found to be 1.73 µM. The EC50 at SALL4 came out at 0.595 µM.

Consider `O=C1CCC(N2Cc3cc(NCCNC(=O)Nc4ccccc4)ccc3C2=O)C(=O)N1` (centres unmarked) [Compound C35751, 1-[2-[[2-(2,6-dioxo-3-piperidyl)-1-oxo-isoindolin-5-yl]amino]ethyl]-3-phenyl-urea], for which the values for the EC50 at ASS1 and at SALL4 were 1.45 µM and 0.232 µM, respectively. Further, the IC50 at CRBN was determined as 0.486 µM.

As to `O=C1CCC(N2Cc3ccc(NC(=O)c4cnc5nccn5c4)cc3C2=O)C(=O)N1` (centres unmarked) [Compound C80396, N-[2-(2,6-dioxo-3-piperidyl)-3-oxo-isoindolin-5-yl]imidazo[1,2-a]pyrimidine-6-carboxamide], on CRBN, the IC50 was 2.63 µM. Moreover, the EC50 at SALL4 was found to be 1.38 µM.

With `Cc1ccc2c(=O)n(C3CCC(=O)NC3=O)nnc2c1` (centres unmarked) [Compound C17800, 3-(7-methyl-4-oxo-1,2,3-benzotriazin-3-yl)piperidine-2,6-dione], the IC50 at CRBN is 21.9 µM. In addition, the EC50 on SALL4 was 0.904 µM.

As for `COCC(=O)Nc1cccc2c1CN(C1CCC(=O)NC1=O)C2=O` (centres unmarked) [Compound C22564, N-[2-(2,6-dioxo-3-piperidyl)-1-oxo-isoindolin-4-yl]-2-methoxy-acetamide], at ASS1, the “EC50_ASS1 (M)” value is reported as “>>”. On CRBN, the IC50 worked out at 1.67 µM. Further, the EC50 on SALL4 is 0.873 µM.

On to `CC(=O)NCCNc1ccc2c(c1)CN(C1CCC(=O)NC1=O)C2=O` (centres unmarked) [Compound C35745, N-[2-[[2-(2,6-dioxo-3-piperidyl)-1-oxo-isoindolin-5-yl]amino]ethyl]acetamide], for which the half-maximal inhibitory concentration (IC50) at CRBN was 11.2 µM. Also, the EC50 at SALL4 is 2.63 µM.

Consider `Cc1ccc2nnn(C3CCC(=O)NC3=O)c(=O)c2c1` (centres unmarked) [Compound C16463, 3-(6-methyl-4-oxo-1,2,3-benzotriazin-3-yl)piperidine-2,6-dione], for which, on CRBN, the half-maximal inhibitory concentration (IC50) stood at 2.67 µM. Moreover, the EC50 on SALL4 was 0.772 µM.

With `CC(Nc1ccc2c(c1)C(=O)N(C1CCC(=O)NC1=O)C2)C(=O)O` (centres unmarked) [Compound C84970, 2-[[2-(2,6-dioxo-3-piperidyl)-3-oxo-isoindolin-5-yl]amino]propanoic acid], the 50% inhibitory concentration (IC50) at CRBN amounted to 1.42 µM. Moreover, at SALL4, the EC50 came out at 1.01 µM.

`Cc1ccc(NC(=O)NCc2cc(C)c3c(c2)CN(C2CCC(=O)NC2=O)C3=O)cc1Cl` (centres unmarked) [Compound C58181, 1-(3-chloro-4-methyl-phenyl)-3-[[2-(2,6-dioxo-3-piperidyl)-7-methyl-1-oxo-isoindolin-5-yl]methyl]urea]: the “EC50_ASS1 (M)” value on ASS1 is “>>”. Also, the IC50 on CRBN was found to be 0.0291 µM.

For `O=C1CCC(N2C(=O)c3ccccc3C2=O)C(=O)N1` (centres unmarked) [THL, Thalidomide, reference compound], at ASS1, the “EC50_ASS1 (M)” value is on record as “>>”.

`CN(C)CC(=O)Nc1cccc2c1CN(C1CCC(=O)NC1=O)C2=O` (centres unmarked) [Compound C22586, 2-(dimethylamino)-N-[2-(2,6-dioxo-3-piperidyl)-1-oxo-isoindolin-4-yl]acetamide]: the IC50 on CRBN turned out to be 1.3 µM. Further, the EC50 at SALL4 was 1.14 µM.

As to `O=C1CCC(N2Cc3cc(Nc4ncccn4)ccc3C2=O)C(=O)N1` (centres unmarked) [Compound C80369, 3-[1-oxo-5-(pyrimidin-2-ylamino)isoindolin-2-yl]piperidine-2,6-dione], the EC50 at ASS1 was 1.29 µM. Also, the half-inhibitory concentration (IC50) on CRBN turned out to be 0.0415 µM.

For the compound `CC(C)OC1c2ccccc2C(=O)N1C1CCC(=O)NC1=O` (centres unmarked) [3-(1-isopropoxy-3-oxo-isoindolin-2-yl)piperidine-2,6-dione], at CRBN, the half-maximal inhibitory concentration (IC50) amounted to 22.9 µM. Besides, on SALL4, the EC50 is 2.7 µM.

`O=C1CCC(N2C(=O)C3=C(C2=O)c2ccccc2CC3)C(=O)N1` (centres unmarked) [Compound C64340, 2-(2,6-dioxo-3-piperidyl)-4,5-dihydrobenzo[e]isoindole-1,3-dione]: on CRBN, the IC50 was 2500 µM. For the same compound, the EC50 on SALL4 amounted to 1.49 µM.

As for `CC(=O)NC1c2ccccc2C(=O)N1C1CCC(=O)NC1=O` (centres unmarked) [Compound C33779, N-[2-(2,6-dioxo-3-piperidyl)-3-oxo-isoindolin-1-yl]acetamide], the IC50 at CRBN is 49.4 µM. Also, the EC50 on SALL4 was found to be 3.03 µM.
